The values that follow come from ChEMBL document CHEMBL1134247, “Glycosidase inhibition by cyclic sulfonium compounds” (Bioorg Med Chem Lett, 2001).

As usually defined, the IC50 is the midpoint of a concentration-inhibition curve.

Experiment [1] is described as follows: Inhibitory concentration of compound (10:1 ratio of 10a/10b) against Alpha-mannosidase of Almond. Also on record: species or system Prunus dulcis.
Experiment [2] can be described thus: Inhibitory concentration of compound (4:6 ratio of 10a/10b) against Alpha-mannosidase of Almond. Details: species or system Prunus dulcis; call rule not given here.
Experiment [3] can be described thus: Inhibitory concentration of compound (10:1 ratio of 10a/10b) against Alpha-glucosidase from Bacillus stearothermophilus. Also on record: species or system Geobacillus stearothermophilus.
A short description of experiment [4]: Inhibitory concentration of compound (10:1 ratio of 10a/10b) against Alpha-glucosidase from Baker's yeast. Details: species or system Saccharomyces cerevisiae.
The nature of experiment [5]: Inhibitory concentration of compound (4:6 ratio of 10a/10b) against Alpha-glucosidase from Baker's yeast. Details: species or system Saccharomyces cerevisiae.
Experiment [6] is described as follows: Inhibitory concentration of compound (10:1 ratio of 10a/10b) against Alpha-glucosidase from recombinant Saccharomyces cerevisiae.
Experiment [7] in a line: Inhibitory concentration of compound (4:6 ratio of 10a/10b) against Alpha-glucosidase from recombinant Saccharomyces cerevisiae.
Experiment [8] in a line: Inhibitory concentration of compound (10:1 ratio of 10a/10b) against Alpha-glucosidase from rice.
Experiment [9] in a line: Inhibitory concentration of compound (4:6 ratio of 10a/10b) against Alpha-glucosidase from rice.
The nature of experiment [10]: Inhibitory concentration of compound (4:6 ratio of 10a/10b) against Alpha-glucosidase from Bacillus stearothermophilus. Details: species or system Geobacillus stearothermophilus.
The subject of experiment [11] is beta-glucosidase (Prunus dulcis). Kind of experiment: Inhibitory concentration of compound (4:6 ratio of 10a/10b) against Beta-Glucosidase from Almond; not active.
Experiment [12] has the same test system. Put plainly: Inhibitory concentration of compound (10:1 ratio of 10a/10b) against Beta-glucosidase from Almond; not active.
Experiment [13] can be described thus: Inhibitory concentration of compound against Alpha-glucosidase from B. stearothermophilus; not active at less than 50% inhibition. Also on record: species or system Geobacillus stearothermophilus.
A short description of experiment [14]: Inhibitory concentration of compound against Alpha-glucosidase from Baker's yeast; not active at less than 50% inhibition. Details: species or system Saccharomyces cerevisiae.
The nature of experiment [15]: Inhibitory concentration of compound against Alpha-glucosidase from recombinant S. cerevisiae; not active at less than 50% inhibition. Details: species or system Saccharomyces cerevisiae.
The nature of experiment [16]: Inhibitory concentration of compound against Alpha-glucosidase from rice.
Experiment [17] deals with Beta-galactosidase (Escherichia coli, UniProt Q8VNN2). Put plainly: Inhibitory effect towards Beta-galactosidase at a concentration of 2 mM from E. coli; no inhibitory effect.
Sequence of Beta-galactosidase (Q8VNN2 whole entry): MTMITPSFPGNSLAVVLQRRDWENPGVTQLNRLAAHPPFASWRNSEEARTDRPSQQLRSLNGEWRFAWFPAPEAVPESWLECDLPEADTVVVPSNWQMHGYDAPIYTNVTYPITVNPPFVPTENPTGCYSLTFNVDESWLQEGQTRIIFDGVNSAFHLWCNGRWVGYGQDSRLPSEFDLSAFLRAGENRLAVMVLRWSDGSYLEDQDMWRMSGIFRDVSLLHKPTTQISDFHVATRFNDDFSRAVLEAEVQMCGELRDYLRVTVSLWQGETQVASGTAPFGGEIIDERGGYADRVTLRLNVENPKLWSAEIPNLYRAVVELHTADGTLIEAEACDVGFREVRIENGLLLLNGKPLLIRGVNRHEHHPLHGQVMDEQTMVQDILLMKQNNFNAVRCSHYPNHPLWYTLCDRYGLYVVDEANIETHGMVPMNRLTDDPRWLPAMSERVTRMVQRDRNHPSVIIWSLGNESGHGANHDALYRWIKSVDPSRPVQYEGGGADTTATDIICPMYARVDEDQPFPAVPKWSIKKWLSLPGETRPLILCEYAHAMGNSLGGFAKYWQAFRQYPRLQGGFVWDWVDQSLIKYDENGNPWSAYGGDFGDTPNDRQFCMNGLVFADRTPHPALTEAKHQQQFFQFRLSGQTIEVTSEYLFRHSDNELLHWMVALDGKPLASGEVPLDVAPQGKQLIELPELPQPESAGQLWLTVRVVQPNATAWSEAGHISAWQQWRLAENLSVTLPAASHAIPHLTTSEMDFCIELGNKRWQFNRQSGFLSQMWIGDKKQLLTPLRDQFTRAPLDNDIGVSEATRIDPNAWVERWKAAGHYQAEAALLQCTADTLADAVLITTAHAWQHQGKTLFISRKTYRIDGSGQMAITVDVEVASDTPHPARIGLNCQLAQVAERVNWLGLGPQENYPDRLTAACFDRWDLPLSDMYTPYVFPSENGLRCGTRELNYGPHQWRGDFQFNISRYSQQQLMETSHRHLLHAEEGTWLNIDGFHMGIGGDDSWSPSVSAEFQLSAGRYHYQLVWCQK
A short description of experiment [18]: (§1) Inhibitory concentration of compound against Alpha-mannosidase of Almond. Details: species or system Prunus dulcis.
In experiment [19] the test system is alpha-galactosidase (Coffea arabica). Put plainly: Inhibitory effect towards Alpha-galactosidase at a concentration of 2 mM from coffee beans; no inhibitory effect.
The test system of experiment [20] is Prunus dulcis. The experiment is described as §1.
Experiment [21] can be described thus: Inhibitory concentration of compound against Alpha-glucosidase in Bacillus stearothermophilus. Details: species or system Geobacillus stearothermophilus.
The nature of experiment [22]: Inhibitory concentration of compound against Alpha-glucosidase in Baker's yeast; not active at less than 50% inhibition. Details: species or system Saccharomyces cerevisiae.
Experiment [23] in a line: Inhibitory concentration of compound against Alpha-glucosidase in recombinant S. cerevisiae; not active. Details: species or system Saccharomyces cerevisiae.
The nature of experiment [24]: Inhibitory concentration of compound against Alpha-glucosidase in rice.
A short description of experiment [25]: Inhibitory concentration of compound against Alpha-mannosidase of Almond; not active. Details: species or system Prunus dulcis.
Experiment [26] is described as follows: Inhibitory concentration of compound against Alpha-glucosidase from rice; not active at less than 50% inhibition.
Experiment [27] concerns beta-glucosidase (Prunus dulcis). Put plainly: Inhibitory concentration of compound against Beta-glucosidase from Almond;not active.

On to `C[S+]1C[C@@H](O)[C@H](O)[C@H]1CO.[I-]` (stereo partly specified), for which the half-maximal inhibitory concentration (IC50) in experiment [1] is 2100 µM; in experiment [2], 1200 µM; in experiment [3], 250 µM; in [4] it was 360 µM; in [5] it was 2200 µM; in experiment [6], 490 µM. Further, the IC50 is 2100 µM in [7]; 410 µM in experiment [8]; 2000 µM in [9]; 1400 µM in experiment [10]; “Not Active” in experiment [11]; “Not Active” in experiment [12].
Turning to `O=S(=O)([O-])O[C@H](CO)[C@@H](O)C[S@+]1C[C@@H](O)[C@H](O)[C@@H]1CO`, the IC50 result in experiment [13] was “Not Active”; in experiment [14], “Not Active”; in experiment [15], “Not Active”; in [16], 380 µM; in experiment [17], “No effect”; in [18], 3600 µM.
Turning to `O=S(=O)([O-])O[C@H](CO)[C@@H](O)C[S+]1CCCC1`, the IC50 entry in [14] was “Not Active”; in experiment [16] it was 1000 µM; in experiment [17], “No effect”; in experiment [19], “No effect”.
In turn, `O=S(=O)([O-])O[C@@H](CO)[C@H](O)C[S@+]1C[C@@H](O)[C@H](O)[C@@H]1CO` returned an IC40 in experiment [20] of 2100 µM. Moreover, the IC50 in [21] was 2500 µM; in experiment [22], “Not Active”; in [23], “Not Active”; in experiment [24], 110 µM.
For `O=S(=O)([O-])O[C@@H](CO)[C@H](O)C[S+]1CCCC1`, the half-inhibitory concentration (IC50) entry in experiment [25], in [14], in [26] and in experiment [27] was “Not Active” in each case.
